# Tested on: collagen 1 (COL1)
# Test: WI-38 collagen 1 inhibition assay
# Type: cell-based, human
# Settings: Cellular EC50, WI-38 cells; values are classes of LogEC50
# Summary of the method: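 WI-38 fibroblasts serum-starved (0.25% FBS 2 h, then none 24 h), then given a collagen induction cocktail together with compound. Cells fixed, immunostained for collagen I with DAPI counterstain, and imaged at 20×; per-cell fluorescence quantified by image analysis.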
row,Compound,COL1 Efficacy (LogEC50)
1,"Cc1ccc(C(=O)Nc2nc(-c3ccccc3N3CCC3)cs2)cn1 [compound 350, N-[4-[2-(azetidin-1-yl)phenyl]thiazol-2-yl]-6-methyl-pyridine-3-carboxamide]",− (−: inactive)
2,"COc1ccccc1-c1csc(NC(=O)c2ccc(N3CCOCC3)cc2)n1 [compound 351, N-[4-(2-methoxyphenyl)thiazol-2-yl]-4-morpholino-benzamide]",+++ (+++: <−6)
3,"O=C(Nc1nc(-c2cccnc2)cs1)c1ccc(N2CCOCC2)cc1 [compound 352, 4-morpholino-N-[4-(3-pyridyl)thiazol-2-yl]benzamide]",+ (+: >−5)
4,"COc1cc(OC)cc(-c2csc(NC(=O)c3ccc(N4CCOCC4)cc3)n2)c1 [compound 353, N-[4-(3,5-dimethoxyphenyl)thiazol-2-yl]-4-morpholino-benzamide]",+++ (+++: <−6)
5,"Cn1cc(-c2csc(NC(=O)c3ccc(N4CCOCC4)cc3)n2)cn1 [compound 354, N-[4-(1-methylpyrazol-4-yl)thiazol-2-yl]-4-morpholino-benzamide]",++ (++: −5 to −6)
6,"COc1ncc(C(=O)Nc2nc(-c3cccnc3C)cs2)cn1 [compound 355, 2-methoxy-N-[4-(2-methyl-3-pyridyl)thiazol-2-yl]pyrimidine-5-carboxamide]",− (−: inactive)
7,"COc1ncc(C(=O)Nc2nc(-c3cccnc3OC)cs2)cn1 [compound 356, 2-methoxy-N-[4-(2-methoxy-3-pyridyl)thiazol-2-yl]pyrimidine-5-carboxamide]",− (−: inactive)
8,"COc1cccc(-c2csc(NC(=O)c3ccc(N4CCOCC4)cc3)n2)c1 [compound 357, N-[4-(3-methoxyphenyl)thiazol-2-yl]-4-morpholino-benzamide]",+ (+: >−5)
9,"O=C(Nc1nc(-c2ccccc2Cl)cs1)c1cnc(N2CCOCC2)nc1 [compound 358, N-[4-(2-chlorophenyl)thiazol-2-yl]-2-morpholino-pyrimidine-5-carboxamide]",− (−: inactive)
10,"O=C(Nc1nc(-c2ccccc2)cs1)c1ccc(N2CCOCC2)cc1 [compound 359, 4-morpholino-N-(4-phenylthiazol-2-yl)benzamide]",+ (+: >−5)
11,"O=C(Nc1nc(-c2ccccc2Cl)cs1)N1CCC(N2CCOCC2)CC1 [compound 360, N-[4-(2-chlorophenyl)thiazol-2-yl]-4-morpholino-piperidine-1-carboxamide]",+ (+: >−5)
12,"N#Cc1ccccc1-c1csc(NC(=O)c2ccc(N3CCOCC3)cc2)n1 [compound 361, N-[4-(2-cyanophenyl)thiazol-2-yl]-4-morpholino-benzamide]",− (−: inactive)
13,"O=C(Nc1nc(-c2ccccc2Cl)cs1)C1CN(C2CCOCC2)C1 [compound 363, N-[4-(2-chlorophenyl)thiazol-2-yl]-1-tetrahydropyran-4-yl-azetidine-3-carboxamide]",++ (++: −5 to −6)
14,"CS(=O)(=O)N1CCN(c2ccc(C(=O)Nc3nc(-c4ccccc4Cl)cs3)cc2)CC1 [compound 365, N-[4-(2-chlorophenyl)thiazol-2-yl]-4-(4-methylsulfonylpiperazin-1-yl)benzamide]",+++ (+++: <−6)
15,"O=C(Nc1nc(-c2ccccc2Cl)cs1)c1ccc(N2CCOCC2)nn1 [compound 366, N-[4-(2-chlorophenyl)thiazol-2-yl]-6-morpholino-pyridazine-3-carboxamide]",+++ (+++: <−6)
16,"O=C(Nc1nc(-c2ccccc2Cl)cs1)c1cnc(N2CCOCC2)cn1 [compound 367, N-[4-(2-chlorophenyl)thiazol-2-yl]-5-morpholino-pyrazine-2-carboxamide]",+++ (+++: <−6)

row,Compound,COL1 Efficacy (LogEC50)
1,"Cc1ncccc1-c1csc(NC(=O)c2ccc(N3CCOCC3)cc2)n1 [compound 369, N-[4-(2-methyl-3-pyridyl)thiazol-2-yl]-4-morpholino-benzamide]",++ (++: −5 to −6)
2,"Cc1ncccc1-c1csc(NC(=O)c2ccc(N3CCOCC3)cn2)n1 [compound 371, N-[4-(2-methyl-3-pyridyl)thiazol-2-yl]-5-morpholino-pyridine-2-carboxamide]",++ (++: −5 to −6)
3,"Cc1ncccc1-c1csc(NC(=O)c2cnc(N3CCOCC3)cn2)n1 [compound 372, N-[4-(2-methyl-3-pyridyl)thiazol-2-yl]-5-morpholino-pyrazine-2-carboxamide]",+ (+: >−5)
4,"Cc1ncccc1-c1csc(NC(=O)c2ccc(N3CCOCC3)nn2)n1 [compound 373, N-[4-(2-methyl-3-pyridyl)thiazol-2-yl]-6-morpholino-pyridazine-3-carboxamide]",+ (+: >−5)
5,"Cc1ncccc1-c1csc(NC(=O)c2cnc(N3CCOCC3)nc2)n1 [compound 374, N-[4-(2-methyl-3-pyridyl)thiazol-2-yl]-2-morpholino-pyrimidine-5-carboxamide]",+ (+: >−5)
6,"Cc1ncccc1-c1csc(NC(=O)c2ccc(N3CCOCC3)nc2)n1 [compound 375, N-[4-(2-methyl-3-pyridyl)thiazol-2-yl]-6-morpholino-pyridine-3-carboxamide]",+ (+: >−5)
7,"O=C(Nc1nc(-c2ccccc2Cl)cs1)c1ccc(C2CCS(=O)(=O)CC2)cc1 [compound 382, N-(4-(2-chlorophenyl)thiazol-2-yl)-4-(1,1-dioxidotetrahydro-2H-thiopyran-4-yl)benzamide]",+++ (+++: <−6)
8,"O=C(Nc1nc(-c2ccccc2Cl)cs1)c1ccc(C(=O)N2CCOCC2)cc1 [compound 384, N-(4-(2-chlorophenyl)thiazol-2-yl)-4-(morpholine-4-carbonyl)benzamide]",++ (++: −5 to −6)
9,"O=C(Nc1nc(-c2ccccc2Cl)cs1)c1ccc(C(=O)N2CCS(=O)(=O)CC2)cc1 [compound 385, N-(4-(2-chlorophenyl)thiazol-2-yl)-4-(1,1-dioxidothiomorpholine-4-carbonyl)benzamide]",++ (++: −5 to −6)
10,"CN(C)C(=O)c1ccc(C(=O)Nc2nc(-c3ccccc3Cl)cs2)cc1 [compound 389, N′-(4-(2-chlorophenyl)thiazol-2-yl)-N,N-dimethylterephthalamide]",++ (++: −5 to −6)
11,"O=C(Nc1nc(C2CCOCC2)cs1)c1ccc(N2CCOCC2)cn1 [compound 393, 5-morpholino-N-(4-(tetrahydro-2H-pyran-4-yl)thiazol-2-yl)picolinamide]",++ (++: −5 to −6)
12,O=C(Nc1nc(-c2ccccc2Cl)cs1)c1ccc(N2CCOCC2)cc1F [compound 408],− (−: inactive)
13,O=C(Nc1nc(-c2ccccc2Cl)cs1)C12CC(C(=O)N3CCOCC3)(C1)C2 [compound 420],+ (+: >−5)
14,"O=C(Nc1nc(-c2ccccc2Cl)cs1)[C@H]1C[C@H](N2CCOCC2)C1 [compound 422, (1r,3r)-N-(4-(2-chlorophenyl)thiazol-2-yl)-3-morpholinocyclobutane-1-carboxamide]",++ (++: −5 to −6)
15,CS(=O)(=O)N1CCN([C@H]2C[C@@H](C(=O)Nc3nc(-c4ccccc4Cl)cs3)C2)CC1 [compound 423],− (−: inactive)
16,O=C(Nc1nc(-c2ccccc2Cl)cs1)C1CC(C(=O)N2CCOCC2)C1 (centres unmarked) [compound 426],− (−: inactive)
